US9113629B2, “4-amino-6-(4-substituted-phenyl)-picolinates and 6-amino-2-(4-substituted-phenyl)-pyrimidine-4-carboxylates and their use as herbicides” (DOW AGROSCIENCES LLC, priority 2013, dated 2015)

What was measured:
Assay in all cases: Pre-emergent Test III, preemergent activity in wheat and barley
LAMSS = format: in vivo; conditions: for GR50 LAMSS / GR80 LAMSS: 21 days after application, probit analysis; for GR50 LAMSS: dose to kill or control 50%; for GR80 LAMSS: dose to kill or control 80%
Protocol: (§1) Pre-emergent Test III. Seeds of test species were planted into square plastic pots (10 cm wide) containing sandy loam soil. After planting, all pots were sub-irrigated 16 h prior to compound application. A weighed amount, determined by the highest rate to be tested, of each test compound was placed in a 25 mL glass vial and was dissolved in 4 mL of a 97:3 v/v mixture of acetone and DMSO to obtain concentrated stock solutions. […] The concentrated stock solutions obtained were diluted with 20 mL of an aqueous mixture containing water and 0.02% w/v (weight/volume) of Triton X-155 to obtain spray solutions containing the highest application rates. Additional application rates were obtained by serial dilution of 12 mL of the high rate solution into a solution containing 2 mL of 97:3 v/v mixture of acetone and DMSO and 10 mL of an aqueous mixture containing water and 0.02% w/v (weight/volume) of Triton X-155 to obtain 1⁄2×, 1⁄4×, 1⁄8× and 1/16× rates of the high rate. Compound requirements are based upon a 12 mL application volume at a rate of 187 liters per hectare (L/ha). Formulated compounds were applied to the soil surface with an overhead Mandel track sprayer equipped with […] nozzles calibrated to deliver 187 L/ha over an application area of 0.503 square meters. Control pots were sprayed in the same manner with the solvent blank. The treated pots and control pots were placed in a greenhouse as described above and watered through surface irrigation. After 21 d, the condition of the test pots as compared with that of the untreated pots was determined visually and scored on a scale of 0 to 100 percent where 0 corresponds to no herbicidal effect and 100 corresponds to plant death or lack of emergence from the soil. By applying the well-accepted probit analysis as described by J. Berkson in Journal of the American Statistical Society, 48, 565 (1953) and by D. Finney in “Probit Analysis” Cambridge University Press (1952), the above data can be used to calculate GR20, GR50, GR80 and GR90 values, which are defined as growth reduction factors that correspond to the effective dose of herbicide required to kill or control 20 percent, 50 percent, 80 percent or 90 percent, respectively, of a target plant.

LOLSS = format: in vivo, Lolium multiflorum, Lolium rigidum; conditions: for GR50 LOLSS / GR80 LOLSS: 21 days after application, probit analysis; for GR50 LOLSS: dose to kill or control 50%; for GR80 LOLSS: dose to kill or control 80%
Protocol: as §1

APESV = format: in vivo, Apera spica-venti; conditions: for GR50 APESV / GR80 APESV: 21 days after application, probit analysis; for GR50 APESV: dose to kill or control 50%; for GR80 APESV: dose to kill or control 80%
Protocol: as §1

SETVI = format: in vivo, Setaria viridis; conditions: for GR50 SETVI / GR80 SETVI: 21 days after application, probit analysis; for GR50 SETVI: dose to kill or control 50%; for GR80 SETVI: dose to kill or control 80%
Protocol: as §1

TRZSS = format: in vivo, Triticum aestivum; conditions: for GR20 TRZSS: 21 days after application, dose to kill or control 20%, probit analysis
Protocol: as §1

HORSS = format: in vivo, Hordeum vulgare; conditions: for GR20 HORSS: 21 days after application, dose to kill or control 20%, probit analysis
Protocol: as §1

Compound: Nc1c(F)c(-c2ccc(Br)cc2)nc(C(=O)O)c1Cl [Compound 20]
- Visual Growth Reduction (%) 21 Days After Application, LAMSS (LAMSS; 35 g ai/ha): A (95-100)
- Visual Growth Reduction (%) 21 Days After Application, LAMSS (LAMSS; 70 g ai/ha): A (95-100)
- GR50 LAMSS (LAMSS): 6 g ai/ha
- GR80 LAMSS (LAMSS): 9 g ai/ha
- Visual Growth Reduction (%) 21 Days After Application, LOLSS (LOLSS; 35 g ai/ha): G (0-29)
- Visual Growth Reduction (%) 21 Days After Application, LOLSS (LOLSS; 70 g ai/ha): E (45-59)
- GR50 LOLSS (LOLSS): >70 g ai/ha
- GR80 LOLSS (LOLSS): >70 g ai/ha
- Visual Growth Reduction (%) 21 Days After Application, APESV (APESV; 35 g ai/ha): A (95-100)
- Visual Growth Reduction (%) 21 Days After Application, APESV (APESV; 70 g ai/ha): A (95-100)
- GR50 APESV (APESV): 6 g ai/ha
- GR80 APESV (APESV): 16 g ai/ha
- Visual Growth Reduction (%) 21 Days After Application, SETVI (SETVI; 35 g ai/ha): F (30-44)
- Visual Growth Reduction (%) 21 Days After Application, SETVI (SETVI; 70 g ai/ha): B (85-94)
- GR50 SETVI (SETVI): 32 g ai/ha
- GR80 SETVI (SETVI): 71 g ai/ha
- Visual Growth Reduction (%) 21 Days After Application, TRZSS (TRZSS; 35 g ai/ha): E (45-59)
- Visual Growth Reduction (%) 21 Days After Application, TRZSS (TRZSS; 70 g ai/ha): E (45-59)
- GR20 TRZSS (TRZSS): 10 g ai/ha
- Visual Growth Reduction (%) 21 Days After Application, HORSS (HORSS; 35 g ai/ha): F (30-44)
- Visual Growth Reduction (%) 21 Days After Application, HORSS (HORSS; 70 g ai/ha): E (45-59)
- GR20 HORSS (HORSS): 17 g ai/ha

Compound: C=Cc1c(C(=O)O)nc(-c2ccc(Cl)c(F)c2)c(F)c1N [Compound 214]
- Visual Growth Reduction (%) 21 Days After Application, LAMSS (LAMSS; 35 g ai/ha): A (95-100)
- Visual Growth Reduction (%) 21 Days After Application, LAMSS (LAMSS; 70 g ai/ha): A (95-100)
- GR50 LAMSS (LAMSS): 1 g ai/ha
- GR80 LAMSS (LAMSS): 2 g ai/ha
- Visual Growth Reduction (%) 21 Days After Application, LOLSS (LOLSS; 35 g ai/ha): G (0-29)
- Visual Growth Reduction (%) 21 Days After Application, LOLSS (LOLSS; 70 g ai/ha): E (45-59)
- GR50 LOLSS (LOLSS): >70 g ai/ha
- GR80 LOLSS (LOLSS): >70 g ai/ha
- Visual Growth Reduction (%) 21 Days After Application, APESV (APESV; 35 g ai/ha): C (75-84)
- Visual Growth Reduction (%) 21 Days After Application, APESV (APESV; 70 g ai/ha): A (95-100)
- GR50 APESV (APESV): 13 g ai/ha
- GR80 APESV (APESV): 28 g ai/ha
- Visual Growth Reduction (%) 21 Days After Application, SETVI (SETVI; 35 g ai/ha): G (0-29)
- Visual Growth Reduction (%) 21 Days After Application, SETVI (SETVI; 70 g ai/ha): G (0-29)
- GR50 SETVI (SETVI): >70 g ai/ha
- GR80 SETVI (SETVI): >70 g ai/ha
- Visual Growth Reduction (%) 21 Days After Application, TRZSS (TRZSS; 35 g ai/ha): G (0-29)
- Visual Growth Reduction (%) 21 Days After Application, TRZSS (TRZSS; 70 g ai/ha): F (30-44)
- GR20 TRZSS (TRZSS): 28 g ai/ha
- Visual Growth Reduction (%) 21 Days After Application, HORSS (HORSS; 35 g ai/ha): G (0-29)
- Visual Growth Reduction (%) 21 Days After Application, HORSS (HORSS; 70 g ai/ha): G (0-29)
- GR20 HORSS (HORSS): 93 g ai/ha

Compound: Nc1c(F)c(-c2cc(F)c(Br)cc2F)nc(C(=O)O)c1Cl [Compound 42, 4-amino-6-(4-bromo-2,5-difluorophenyl)-3-chloro-5-fluoropicolinic acid]
- Visual Growth Reduction (%) 21 Days After Application, LAMSS (LAMSS; 35 g ai/ha): A (95-100)
- Visual Growth Reduction (%) 21 Days After Application, LAMSS (LAMSS; 70 g ai/ha): A (95-100)
- GR50 LAMSS (LAMSS): 1 g ai/ha
- GR80 LAMSS (LAMSS): 1 g ai/ha
- Visual Growth Reduction (%) 21 Days After Application, LOLSS (LOLSS; 35 g ai/ha): G (0-29)
- Visual Growth Reduction (%) 21 Days After Application, LOLSS (LOLSS; 70 g ai/ha): G (0-29)
- GR50 LOLSS (LOLSS): >70 g ai/ha
- GR80 LOLSS (LOLSS): >70 g ai/ha
- Visual Growth Reduction (%) 21 Days After Application, APESV (APESV; 35 g ai/ha): B (85-94)
- Visual Growth Reduction (%) 21 Days After Application, APESV (APESV; 70 g ai/ha): A (95-100)
- GR50 APESV (APESV): 12 g ai/ha
- GR80 APESV (APESV): 27 g ai/ha
- Visual Growth Reduction (%) 21 Days After Application, SETVI (SETVI; 35 g ai/ha): E (45-59)
- Visual Growth Reduction (%) 21 Days After Application, SETVI (SETVI; 70 g ai/ha): D (60-74)
- GR50 SETVI (SETVI): 36 g ai/ha
- GR80 SETVI (SETVI): >70 g ai/ha
- Visual Growth Reduction (%) 21 Days After Application, TRZSS (TRZSS; 35 g ai/ha): E (45-59)
- Visual Growth Reduction (%) 21 Days After Application, TRZSS (TRZSS; 70 g ai/ha): E (45-59)
- GR20 TRZSS (TRZSS): 5 g ai/ha
- Visual Growth Reduction (%) 21 Days After Application, HORSS (HORSS; 35 g ai/ha): F (30-44)
- Visual Growth Reduction (%) 21 Days After Application, HORSS (HORSS; 70 g ai/ha): E (45-59)
- GR20 HORSS (HORSS): 11 g ai/ha

Compound: Nc1c(F)c(-c2ccc(Br)c(F)c2F)nc(C(=O)O)c1Cl [Compound 147]
- Visual Growth Reduction (%) 21 Days After Application, LAMSS (LAMSS; 35 g ai/ha): A (95-100)
- Visual Growth Reduction (%) 21 Days After Application, LAMSS (LAMSS; 70 g ai/ha): A (95-100)
- GR50 LAMSS (LAMSS): 1 g ai/ha
- GR80 LAMSS (LAMSS): 5 g ai/ha
- Visual Growth Reduction (%) 21 Days After Application, LOLSS (LOLSS; 35 g ai/ha): G (0-29)
- Visual Growth Reduction (%) 21 Days After Application, LOLSS (LOLSS; 70 g ai/ha): G (0-29)
- GR50 LOLSS (LOLSS): 52 g ai/ha
- GR80 LOLSS (LOLSS): >70 g ai/ha
- Visual Growth Reduction (%) 21 Days After Application, APESV (APESV; 35 g ai/ha): C (75-84)
- Visual Growth Reduction (%) 21 Days After Application, APESV (APESV; 70 g ai/ha): B (85-94)
- GR50 APESV (APESV): 19 g ai/ha
- GR80 APESV (APESV): 33 g ai/ha
- Visual Growth Reduction (%) 21 Days After Application, SETVI (SETVI; 35 g ai/ha): E (45-59)
- Visual Growth Reduction (%) 21 Days After Application, SETVI (SETVI; 70 g ai/ha): C (75-84)
- GR50 SETVI (SETVI): 17 g ai/ha
- GR80 SETVI (SETVI): >70 g ai/ha
- Visual Growth Reduction (%) 21 Days After Application, TRZSS (TRZSS; 35 g ai/ha): F (30-44)
- Visual Growth Reduction (%) 21 Days After Application, TRZSS (TRZSS; 70 g ai/ha): F (30-44)
- GR20 TRZSS (TRZSS): 23 g ai/ha
- Visual Growth Reduction (%) 21 Days After Application, HORSS (HORSS; 35 g ai/ha): G (0-29)
- Visual Growth Reduction (%) 21 Days After Application, HORSS (HORSS; 70 g ai/ha): G (0-29)
- GR20 HORSS (HORSS): 70 g ai/ha
